Earlier results as cited in paper PMC9667546, “Selective Inhibition of Bruton’s Tyrosine Kinase by a Designed Covalent Ligand Leads to Potent Therapeutic Efficacy in Blood Cancers Relative to Clinically Used Inhibitors” (ACS Pharmacology & Translational Science, 2022).

Tests used:
EGFR = biological target: T1, EGFR (Homo sapiens, UniProt P00533); conditions: Table S3 heat map; ref SI 1-19; cited from earlier work
T1 construct: host or cells: HEK296T (so in the source)

Her2 = conditions: read-out: IC50, Her2; Table S3 heat map; ref SI 1-19; cited from earlier work
BTK = BTK (Homo sapiens, UniProt Q06187); set-up: purchased Promega Corporation V2941; conditions: Table S3 heat map; ref SI 1-19; read-out: IC50, BTK; cited from earlier work
Sequence of BTK (Q06187 whole entry): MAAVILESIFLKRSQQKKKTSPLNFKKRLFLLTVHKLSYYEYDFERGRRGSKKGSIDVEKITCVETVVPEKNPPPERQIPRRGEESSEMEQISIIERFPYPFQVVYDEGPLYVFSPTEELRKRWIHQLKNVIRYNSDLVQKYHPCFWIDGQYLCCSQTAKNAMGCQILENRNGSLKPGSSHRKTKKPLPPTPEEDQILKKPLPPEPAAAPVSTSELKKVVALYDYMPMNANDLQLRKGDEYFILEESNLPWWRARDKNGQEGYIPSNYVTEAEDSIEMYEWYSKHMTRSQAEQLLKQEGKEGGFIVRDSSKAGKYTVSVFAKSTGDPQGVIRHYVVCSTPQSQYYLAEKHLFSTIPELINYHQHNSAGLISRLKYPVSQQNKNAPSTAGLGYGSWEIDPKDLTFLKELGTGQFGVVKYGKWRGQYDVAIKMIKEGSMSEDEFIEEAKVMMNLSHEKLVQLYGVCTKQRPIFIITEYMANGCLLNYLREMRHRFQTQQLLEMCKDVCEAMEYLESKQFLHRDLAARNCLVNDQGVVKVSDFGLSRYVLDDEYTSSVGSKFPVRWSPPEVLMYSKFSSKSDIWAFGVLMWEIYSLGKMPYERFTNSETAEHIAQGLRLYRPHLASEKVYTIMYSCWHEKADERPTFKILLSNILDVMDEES

ITK = biological target: T2, ITK (Homo sapiens, UniProt Q08881); conditions: Table S3 heat map; ref SI 1-19; cited from earlier work
T2 construct: host or cells: HEK296T (so in the source)
T2 sequence (Q08881 1-620): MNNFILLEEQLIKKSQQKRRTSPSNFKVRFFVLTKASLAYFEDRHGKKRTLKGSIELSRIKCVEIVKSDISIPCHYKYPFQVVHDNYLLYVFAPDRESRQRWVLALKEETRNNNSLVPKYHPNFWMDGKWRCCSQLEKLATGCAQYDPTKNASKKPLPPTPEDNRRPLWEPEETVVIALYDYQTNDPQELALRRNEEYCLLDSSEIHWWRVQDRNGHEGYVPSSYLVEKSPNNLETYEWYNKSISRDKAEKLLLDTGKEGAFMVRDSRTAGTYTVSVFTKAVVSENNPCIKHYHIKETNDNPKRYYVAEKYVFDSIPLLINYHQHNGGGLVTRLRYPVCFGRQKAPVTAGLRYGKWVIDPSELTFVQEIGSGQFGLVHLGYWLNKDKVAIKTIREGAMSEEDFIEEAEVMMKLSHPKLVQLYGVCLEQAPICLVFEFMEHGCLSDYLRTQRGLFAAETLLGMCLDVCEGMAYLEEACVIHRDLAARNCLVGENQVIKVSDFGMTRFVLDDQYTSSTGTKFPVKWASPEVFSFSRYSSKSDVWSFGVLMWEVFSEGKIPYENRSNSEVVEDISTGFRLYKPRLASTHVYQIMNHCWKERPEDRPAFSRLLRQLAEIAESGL

TEC = biological target: T3, TEC (Homo sapiens, UniProt P42680); conditions: Table S3 heat map; ref SI 1-19; cited from earlier work
T3 construct: host or cells: HEK296T (so in the source)
T3 sequence (P42680 1-631): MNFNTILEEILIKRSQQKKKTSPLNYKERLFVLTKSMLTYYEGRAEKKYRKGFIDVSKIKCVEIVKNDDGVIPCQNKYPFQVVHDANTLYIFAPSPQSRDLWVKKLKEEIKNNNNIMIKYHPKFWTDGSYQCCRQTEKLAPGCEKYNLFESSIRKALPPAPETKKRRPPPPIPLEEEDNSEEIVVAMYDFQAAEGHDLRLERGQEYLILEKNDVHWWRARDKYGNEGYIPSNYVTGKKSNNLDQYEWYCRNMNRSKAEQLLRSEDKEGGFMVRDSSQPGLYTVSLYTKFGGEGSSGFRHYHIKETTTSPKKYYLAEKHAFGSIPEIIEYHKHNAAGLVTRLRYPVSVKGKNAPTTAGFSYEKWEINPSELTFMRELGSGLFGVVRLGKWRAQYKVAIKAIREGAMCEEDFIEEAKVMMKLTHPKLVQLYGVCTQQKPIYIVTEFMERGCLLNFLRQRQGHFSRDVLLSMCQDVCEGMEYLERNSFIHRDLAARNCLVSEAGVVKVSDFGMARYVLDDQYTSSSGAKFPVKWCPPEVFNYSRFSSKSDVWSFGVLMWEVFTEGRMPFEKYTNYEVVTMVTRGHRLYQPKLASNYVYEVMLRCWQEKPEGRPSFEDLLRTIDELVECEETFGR

TXK = biological target: T4, TXK (Homo sapiens, UniProt P42681); conditions: Table S3 heat map; ref SI 1-19; cited from earlier work
T4 construct: host or cells: HEK296T (so in the source)
T4 sequence (P42681 1-527): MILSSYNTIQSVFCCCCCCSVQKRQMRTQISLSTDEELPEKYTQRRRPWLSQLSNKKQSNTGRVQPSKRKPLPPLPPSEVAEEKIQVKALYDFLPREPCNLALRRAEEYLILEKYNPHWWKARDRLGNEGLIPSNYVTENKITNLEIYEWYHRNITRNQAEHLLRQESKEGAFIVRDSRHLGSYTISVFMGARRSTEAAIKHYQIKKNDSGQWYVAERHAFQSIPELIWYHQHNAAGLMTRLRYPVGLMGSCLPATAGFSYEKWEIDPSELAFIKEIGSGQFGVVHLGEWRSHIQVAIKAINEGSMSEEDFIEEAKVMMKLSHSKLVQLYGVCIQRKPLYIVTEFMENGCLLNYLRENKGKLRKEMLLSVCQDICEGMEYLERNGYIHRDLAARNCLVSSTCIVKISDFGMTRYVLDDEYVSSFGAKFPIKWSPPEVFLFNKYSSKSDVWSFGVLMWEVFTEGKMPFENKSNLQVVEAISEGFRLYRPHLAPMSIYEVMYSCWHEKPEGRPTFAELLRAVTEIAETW

JAK3 = biological target: T5, JAK3 (Homo sapiens, UniProt P52333); conditions: Table S3 heat map; ref SI 1-19; cited from earlier work
T5 construct: host or cells: HEK296T (so in the source)
T5 sequence (P52333 whole entry): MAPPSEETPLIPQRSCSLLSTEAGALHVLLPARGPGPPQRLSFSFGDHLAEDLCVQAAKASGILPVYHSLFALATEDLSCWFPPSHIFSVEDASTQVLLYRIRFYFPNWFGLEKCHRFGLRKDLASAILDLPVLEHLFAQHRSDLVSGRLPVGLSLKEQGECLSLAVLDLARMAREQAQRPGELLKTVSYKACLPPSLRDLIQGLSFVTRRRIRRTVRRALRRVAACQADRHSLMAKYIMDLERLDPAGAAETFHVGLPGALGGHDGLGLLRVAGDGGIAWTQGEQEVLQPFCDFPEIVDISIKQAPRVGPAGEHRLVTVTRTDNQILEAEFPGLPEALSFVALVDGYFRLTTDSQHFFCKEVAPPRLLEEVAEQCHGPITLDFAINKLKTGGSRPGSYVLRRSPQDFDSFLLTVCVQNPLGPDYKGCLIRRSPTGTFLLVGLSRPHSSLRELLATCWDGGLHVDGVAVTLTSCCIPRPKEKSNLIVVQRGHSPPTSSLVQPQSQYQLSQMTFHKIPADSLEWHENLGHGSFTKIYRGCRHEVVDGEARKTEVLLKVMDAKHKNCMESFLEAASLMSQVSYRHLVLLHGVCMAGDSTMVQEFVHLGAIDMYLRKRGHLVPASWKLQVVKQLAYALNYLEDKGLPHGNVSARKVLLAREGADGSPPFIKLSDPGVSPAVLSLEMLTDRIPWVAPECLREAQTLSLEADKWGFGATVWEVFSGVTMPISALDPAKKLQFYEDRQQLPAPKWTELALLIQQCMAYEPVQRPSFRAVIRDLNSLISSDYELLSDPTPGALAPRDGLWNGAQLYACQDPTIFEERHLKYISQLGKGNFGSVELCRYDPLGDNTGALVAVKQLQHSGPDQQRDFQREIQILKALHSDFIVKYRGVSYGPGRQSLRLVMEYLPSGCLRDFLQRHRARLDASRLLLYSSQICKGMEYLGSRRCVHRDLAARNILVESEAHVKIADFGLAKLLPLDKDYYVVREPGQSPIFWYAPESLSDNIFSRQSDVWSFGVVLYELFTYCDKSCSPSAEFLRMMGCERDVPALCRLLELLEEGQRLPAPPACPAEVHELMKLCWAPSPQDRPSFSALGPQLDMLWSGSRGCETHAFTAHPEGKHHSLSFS

T1 sequence (P00533 25-1210): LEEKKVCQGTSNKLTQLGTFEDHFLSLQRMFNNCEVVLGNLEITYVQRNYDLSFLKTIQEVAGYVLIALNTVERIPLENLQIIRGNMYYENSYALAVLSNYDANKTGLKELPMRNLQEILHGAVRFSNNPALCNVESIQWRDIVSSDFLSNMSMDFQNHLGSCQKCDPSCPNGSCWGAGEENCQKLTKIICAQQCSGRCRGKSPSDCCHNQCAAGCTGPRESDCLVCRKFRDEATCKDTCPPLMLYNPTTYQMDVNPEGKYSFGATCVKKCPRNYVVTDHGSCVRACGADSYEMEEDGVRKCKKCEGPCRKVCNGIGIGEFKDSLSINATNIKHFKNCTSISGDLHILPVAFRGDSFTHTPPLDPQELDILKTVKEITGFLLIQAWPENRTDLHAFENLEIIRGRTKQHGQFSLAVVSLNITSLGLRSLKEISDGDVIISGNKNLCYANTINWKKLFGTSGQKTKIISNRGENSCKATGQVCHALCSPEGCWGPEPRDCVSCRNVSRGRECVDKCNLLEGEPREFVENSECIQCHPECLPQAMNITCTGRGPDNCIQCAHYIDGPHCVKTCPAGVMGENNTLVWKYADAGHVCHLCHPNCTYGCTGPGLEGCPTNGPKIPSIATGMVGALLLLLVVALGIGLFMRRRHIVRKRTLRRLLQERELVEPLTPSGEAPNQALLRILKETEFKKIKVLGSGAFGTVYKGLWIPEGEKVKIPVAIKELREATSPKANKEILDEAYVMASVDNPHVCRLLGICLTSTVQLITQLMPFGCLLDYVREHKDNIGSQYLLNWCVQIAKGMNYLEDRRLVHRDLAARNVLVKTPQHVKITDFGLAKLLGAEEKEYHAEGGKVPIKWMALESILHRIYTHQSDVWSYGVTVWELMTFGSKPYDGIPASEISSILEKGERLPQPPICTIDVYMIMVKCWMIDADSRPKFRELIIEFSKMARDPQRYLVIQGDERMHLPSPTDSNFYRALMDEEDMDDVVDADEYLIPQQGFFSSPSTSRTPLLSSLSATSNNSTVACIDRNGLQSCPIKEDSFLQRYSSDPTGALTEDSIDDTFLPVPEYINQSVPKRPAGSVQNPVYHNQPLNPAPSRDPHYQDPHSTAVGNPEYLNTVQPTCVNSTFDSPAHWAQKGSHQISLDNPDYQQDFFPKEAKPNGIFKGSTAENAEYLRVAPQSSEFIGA

CC#CC(=O)N1CC[C@@H](n2cc(-c3ccc(Oc4c(F)cccc4F)cc3)c3c(N)n[nH]c(=O)c32)C1 [TG-1701]
IC50 (EGFR): 270 nM | IC50 (Her2): > 3000 nM | IC50 (BTK): 3 nM | IC50 (ITK): > 3000 nM | IC50 (TEC): 4 nM | IC50 (TXK): 136 nM | IC50 (JAK3): > 3000 nM
